# In article PMC7840908 (Communications Biology, 2021):
# Several values for one entry are separate records, joined by “and”; a condition that tells them apart may be missing. Equal entries are not always repeated. Entries after “also recorded” stand apart in the source; their conditions may differ.
# What was measured:
# MERS-CoV macro domain [1] = biological target: T1, MERS-CoV macro domain (Middle East respiratory syndrome-related coronavirus, UniProt K9N638); type: binding
# MERS-CoV macro domain [2] = biological target: T1, MERS-CoV macro domain; type: binding; remark: listed apart in the source
# MERS-CoV macro domain [3] = biological target: T1, MERS-CoV macro domain; type: binding; remark: listed apart in the source
# MERS-CoV macro domain [4] = biological target: T1, MERS-CoV macro domain; type: biochemical
# MERS-CoV macro domain [5] = biological target: T1, MERS-CoV macro domain; type: binding; remark: listed apart in the source
# MERS-CoV = conditions: cited from earlier work
# T1 sequence (K9N638 1110-1276 limits assumed): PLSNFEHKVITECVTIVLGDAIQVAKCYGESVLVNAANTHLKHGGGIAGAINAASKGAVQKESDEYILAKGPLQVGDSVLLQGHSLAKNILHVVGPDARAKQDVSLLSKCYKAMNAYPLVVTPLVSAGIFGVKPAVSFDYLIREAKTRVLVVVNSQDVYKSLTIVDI
smiles,measurement,setting,value
"Nc1ncnc2c1ncn2C1OC(COP(=O)(O)OP(=O)(O)OCC2OC(O)C(O)C2O)C(O)C1O (stereo not shown) [ADPR, ADP-ribose]","Melting temperature (Tm) of the MERS-CoV macro domain in complex, CD",MERS-CoV macro domain [1],48.8 °C
same,"Melting temperature (Tm) of the MERS-CoV macro domain in complex, DSF",MERS-CoV macro domain [2],49.0 °C
same,entropy contribution,MERS-CoV macro domain [3],−9.30 ± 17.61 J/mol K
same,n (stoichiometry of binding),MERS-CoV macro domain [3],1.25 ± 0.08 and 1.20 ± 0.19
same,Effect on MAR signals in the deMAR reaction,MERS-CoV macro domain [4],the MAR signals reduced fewer
same,"NMR CSP, residue 2",MERS-CoV macro domain [5],0.05411
same,"NMR CSP, residue 3",MERS-CoV macro domain [5],0.1983 and 0.2813
same,"NMR CSP, residue 5",MERS-CoV macro domain [5],0.069
same,"NMR CSP, residue 6",MERS-CoV macro domain [5],0.06294 and 0.07046
same,"NMR CSP, residue 7",MERS-CoV macro domain [5],0.1539 and 0.09995
same,"NMR CSP, residue 8",MERS-CoV macro domain [5],0.1145 and 0.09451
same,"NMR CSP, residue 13",MERS-CoV macro domain [5],0.06576 and 0.04291
same,"NMR CSP, residue 15",MERS-CoV macro domain [5],0.1078 and 0.09719
same,"NMR CSP, residue 16",MERS-CoV macro domain [5],0.1514 and 0.1186
same,"NMR CSP, residue 17",MERS-CoV macro domain [5],0.0814 and 0.0623
same,"NMR CSP, residue 18",MERS-CoV macro domain [5],0.08432 and 0.05219
same,"NMR CSP, residue 19",MERS-CoV macro domain [5],0.3848 and 0.3419
same,"NMR CSP, residue 20",MERS-CoV macro domain [5],0.8973 and 0.7322
same,"NMR CSP, residue 22",MERS-CoV macro domain [5],0.3525 and 0.4007
same,"NMR CSP, residue 23",MERS-CoV macro domain [5],0.383
same,"NMR CSP, residue 25",MERS-CoV macro domain [5],0.05156 and 0.08317
same,"NMR CSP, residue 26",MERS-CoV macro domain [5],0.1992 and 0.1277
same,"NMR CSP, residue 27",MERS-CoV macro domain [5],0.03208
same,"NMR CSP, residue 28",MERS-CoV macro domain [5],0.1376 and 0.09301
same,"NMR CSP, residue 29",MERS-CoV macro domain [5],0.03731 and 0.02244
same,"NMR CSP, residue 31",MERS-CoV macro domain [5],0.0401 and 0.04027
same,"NMR CSP, residue 32",MERS-CoV macro domain [5],0.3295 and 0.3317
same,"NMR CSP, residue 40",MERS-CoV macro domain [5],0.1305
same,"NMR CSP, residue 42",MERS-CoV macro domain [5],0.3421 and 0.2454
same,"NMR CSP, residue 45",MERS-CoV macro domain [5],0.9446
same,"NMR CSP, residue 46",MERS-CoV macro domain [5],1.504 and 1.393
same,"NMR CSP, residue 48",MERS-CoV macro domain [5],1.083
same,"NMR CSP, residue 49",MERS-CoV macro domain [5],0.7736
same,"NMR CSP, residue 50",MERS-CoV macro domain [5],0.4669 and 0.3863
same,"NMR CSP, residue 51",MERS-CoV macro domain [5],0.1048 and 0.1583
same,"NMR CSP, residue 52",MERS-CoV macro domain [5],0.2728 and 0.1547
same,"NMR CSP, residue 53",MERS-CoV macro domain [5],0.1687 and 0.136
same,"NMR CSP, residue 54",MERS-CoV macro domain [5],0.08878 and 0.08252
same,"NMR CSP, residue 55",MERS-CoV macro domain [5],0.1049 and 0.106
same,"NMR CSP, residue 56",MERS-CoV macro domain [5],0.1546 and 0.1346
same,"NMR CSP, residue 57",MERS-CoV macro domain [5],0.138 and 0.07814
same,"NMR CSP, residue 59",MERS-CoV macro domain [5],0.122 and 0.1437
same,"NMR CSP, residue 60",MERS-CoV macro domain [5],0.1518 and 0.1952
same,"NMR CSP, residue 62",MERS-CoV macro domain [5],0.2878 and 0.2628
same,"NMR CSP, residue 63",MERS-CoV macro domain [5],0.1045 and 0.05935
same,"NMR CSP, residue 64",MERS-CoV macro domain [5],0.3272 and 0.2442
same,"NMR CSP, residue 66",MERS-CoV macro domain [5],0.09722 and 0.08557
same,"NMR CSP, residue 67",MERS-CoV macro domain [5],0.1931 and 0.1393
same,"NMR CSP, residue 68",MERS-CoV macro domain [5],0.02796 and 0.05038
same,"NMR CSP, residue 71",MERS-CoV macro domain [5],0.06402
same,"NMR CSP, residue 73",MERS-CoV macro domain [5],0.05219
same,"NMR CSP, residue 74",MERS-CoV macro domain [5],0.2006 and 0.1195
same,"NMR CSP, residue 76",MERS-CoV macro domain [5],0.3259 and 0.302
same,"NMR CSP, residue 77",MERS-CoV macro domain [5],0.2091 and 0.1118
same,"NMR CSP, residue 78",MERS-CoV macro domain [5],0.3066 and 0.2179
same,"NMR CSP, residue 79",MERS-CoV macro domain [5],0.2231 and 0.1318
same,"NMR CSP, residue 81",MERS-CoV macro domain [5],0.02964 and 0.02247
same,"NMR CSP, residue 82",MERS-CoV macro domain [5],0.08035 and 0.07748
same,"NMR CSP, residue 88",MERS-CoV macro domain [5],0.05214 and 0.02732
same,"NMR CSP, residue 90",MERS-CoV macro domain [5],0.03514 and 0.02202
same,"NMR CSP, residue 91",MERS-CoV macro domain [5],0.0404 and 0.05921
same,"NMR CSP, residue 92",MERS-CoV macro domain [5],0.2456 and 0.1395
same,"NMR CSP, residue 93",MERS-CoV macro domain [5],0.4982 and 0.3283
same,"NMR CSP, residue 94",MERS-CoV macro domain [5],1.407 and 1.235
same,"NMR CSP, residue 95",MERS-CoV macro domain [5],0.4425 and 0.3726
same,"NMR CSP, residue 97",MERS-CoV macro domain [5],0.5401 and 0.4521
same,"NMR CSP, residue 100",MERS-CoV macro domain [5],0.1106 and 0.08163
same,"NMR CSP, residue 105",MERS-CoV macro domain [5],0.06587
same,"NMR CSP, residue 106",MERS-CoV macro domain [5],0.1936 and 0.1903
same,"NMR CSP, residue 107",MERS-CoV macro domain [5],0.1268 and 0.1117
same,"NMR CSP, residue 108",MERS-CoV macro domain [5],0.06699 and 0.04787
same,"NMR CSP, residue 110",MERS-CoV macro domain [5],0.1341 and 0.1262
same,"NMR CSP, residue 116",MERS-CoV macro domain [5],0.02109 and 0.03031
same,"NMR CSP, residue 117",MERS-CoV macro domain [5],0.04981 and 0.05032
same,"NMR CSP, residue 120",MERS-CoV macro domain [5],0.07982 and 0.07783
same,"NMR CSP, residue 125",MERS-CoV macro domain [5],0.9414 and 0.7836
same,"NMR CSP, residue 126",MERS-CoV macro domain [5],0.4011 and 0.2956
same,"NMR CSP, residue 127",MERS-CoV macro domain [5],0.636 and 0.5379
same,"NMR CSP, residue 131",MERS-CoV macro domain [5],0.2256 and 0.1765
same,"NMR CSP, residue 132",MERS-CoV macro domain [5],0.8759
same,"NMR CSP, residue 133",MERS-CoV macro domain [5],0.6064 and 0.6446
same,"NMR CSP, residue 135",MERS-CoV macro domain [5],0.1312 and 0.07635
same,"NMR CSP, residue 136",MERS-CoV macro domain [5],0.08199 and 0.1121
same,"NMR CSP, residue 137",MERS-CoV macro domain [5],0.1059 and 0.1517
same,"NMR CSP, residue 138",MERS-CoV macro domain [5],0.1473 and 0.115
same,"NMR CSP, residue 139",MERS-CoV macro domain [5],0.07462 and 0.1086
same,"NMR CSP, residue 140",MERS-CoV macro domain [5],0.04879 and 0.03054
same,"NMR CSP, residue 141",MERS-CoV macro domain [5],0.06216 and 0.08925
same,"NMR CSP, residue 145",MERS-CoV macro domain [5],0.2809 and 0.3196
same,"NMR CSP, residue 148",MERS-CoV macro domain [5],0.04359 and 0.06607
same,"NMR CSP, residue 149",MERS-CoV macro domain [5],0.112 and 0.08955
same,"NMR CSP, residue 150",MERS-CoV macro domain [5],0.04 and 0.03962
same,"NMR CSP, residue 152",MERS-CoV macro domain [5],0.255 and 0.1438
same,"NMR CSP, residue 153",MERS-CoV macro domain [5],0.3264 and 0.2803
same,"NMR CSP, residue 154",MERS-CoV macro domain [5],0.8835 and 0.7254
same,"NMR CSP, residue 155",MERS-CoV macro domain [5],0.3976 and 0.2797
same,"NMR CSP, residue 156",MERS-CoV macro domain [5],0.2021
same,"NMR CSP, residue 157",MERS-CoV macro domain [5],0.1187 and 0.09085
same,"NMR CSP, residue 158",MERS-CoV macro domain [5],0.04463 and 0.03077
same,"NMR CSP, residue 162",MERS-CoV macro domain [5],0.06097 and 0.0557
same,"NMR CSP, residue 163",MERS-CoV macro domain [5],0.2144 and 0.1623
same,"NMR CSP, residue 164",MERS-CoV macro domain [5],0.08089 and 0.05482
"NC(=O)c1ccc[n+]([C@@H]2O[C@H](COP(=O)([O-])OP(=O)(O)OC[C@H]3O[C@@H](n4cnc5c(N)ncnc54)[C@H](O)[C@@H]3O)[C@@H](O)[C@H]2O)c1 [NAD, nicotinamide adenine dinucleotide]","Melting temperature (Tm) of the MERS-CoV macro domain in complex, CD",MERS-CoV macro domain [1],46.6 °C
same,"Melting temperature (Tm) of the MERS-CoV macro domain in complex, DSF",MERS-CoV macro domain [2],46.5 °C
same,entropy contribution,MERS-CoV macro domain [3],−22.59 ± 3.77 J/mol K
same,n (stoichiometry of binding),MERS-CoV macro domain [3],1.04 ± 0.12 and 0.938 ± 0.13
same,Effect on MAR signals in the deMAR reaction,MERS-CoV macro domain [4],the MAR signals reduced more
same,"NMR CSP, residue 25",MERS-CoV macro domain [5],0.05155 and 0.0863
same,"NMR CSP, residue 27",MERS-CoV macro domain [5],0.02171 and 0.02658
same,"NMR CSP, residue 35",MERS-CoV macro domain [5],0.0131
same,"NMR CSP, residue 36",MERS-CoV macro domain [5],0.01783
same,"NMR CSP, residue 37",MERS-CoV macro domain [5],0.07975
same,"NMR CSP, residue 38",MERS-CoV macro domain [5],0.01444
same,"NMR CSP, residue 45",MERS-CoV macro domain [5],0.2497
same,"NMR CSP, residue 47",MERS-CoV macro domain [5],0.006205
same,"NMR CSP, residue 48",MERS-CoV macro domain [5],0.04145
same,"NMR CSP, residue 49",MERS-CoV macro domain [5],0.01049
same,"NMR CSP, residue 79",MERS-CoV macro domain [5],0.07732 and 0.1287
same,"NMR CSP, residue 104",MERS-CoV macro domain [5],0.01357 and 0.02257
same,"NMR CSP, residue 115",MERS-CoV macro domain [5],0.005468 and 0.008456
same,"NMR CSP, residue 124",MERS-CoV macro domain [5],0.0754 and 0.108
same,"NMR CSP, residue 128",MERS-CoV macro domain [5],0.1673
same,"NMR CSP, residue 129",MERS-CoV macro domain [5],0.02609
same,"NMR CSP, residue 130",MERS-CoV macro domain [5],0.008538
same,"NMR CSP, residue 132",MERS-CoV macro domain [5],0.01478
same,"NMR CSP, residue 140",MERS-CoV macro domain [5],0.01724 and 0.02911
same,"NMR CSP, residue 143",MERS-CoV macro domain [5],0.0201 and 0.02422
same,"NMR CSP, residue 156",MERS-CoV macro domain [5],0.0383
same,NMR chemical shift perturbation behaviour / exchange regime,MERS-CoV macro domain [5],only a few residues presented CSPs; also recorded: slow-exchange
Oc1ccc(/C=C/c2cc(O)cc(O)c2)cc1 [resveratrol],Effect on replication of MERS-CoV,MERS-CoV,inhibit the replication of MERS-CoV
